# Measured values as given in patent US12116424B2, “Compounds and compositions for modulating Listeria virulence” (priority 2021, dated 2024).
# Like-named read-outs stand apart in the source and are kept apart here. Where a SMILES comes first, the peptide text is derived from it. Bridges are numbered along the chain shown (N, C = ends). [ ]: non-standard residue; d: D form.
# How the values were obtained:
# L. monocytogenes AgrC [1] = target: T1, L. monocytogenes AgrC (Listeria monocytogenes serovar 1/2a, UniProt Q8YAR5); experiment: Fluorescence (agr-GFP) reporter antagonism assay, wild-type EGD-e reporter strain; type: cell-based
# T1 sequence (Q8YAR5 entry or part of it): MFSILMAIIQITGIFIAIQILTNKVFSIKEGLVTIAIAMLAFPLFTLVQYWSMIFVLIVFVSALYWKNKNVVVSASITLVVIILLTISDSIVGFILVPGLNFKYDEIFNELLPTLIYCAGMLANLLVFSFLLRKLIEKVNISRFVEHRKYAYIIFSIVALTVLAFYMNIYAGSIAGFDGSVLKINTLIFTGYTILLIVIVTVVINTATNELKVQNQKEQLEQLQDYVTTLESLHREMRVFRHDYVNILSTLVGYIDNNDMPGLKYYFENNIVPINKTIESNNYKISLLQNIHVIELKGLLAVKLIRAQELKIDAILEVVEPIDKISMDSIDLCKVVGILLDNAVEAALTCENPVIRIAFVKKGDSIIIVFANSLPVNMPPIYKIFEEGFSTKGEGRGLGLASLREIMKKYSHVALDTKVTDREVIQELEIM
# Text: (§1) Construction of Listeria agr Reporter Strains. A gene block was designed and purchased from Integrated DNA Technologies to contain an EagI recognition site, the PII promoter of the agr system, the 3′ UTR of hly, super folder GFP, and a SaII recognition site. The gene block was digested with EagI and SaII, cloned into an EagI/SaII-cut pAM401 plasmid resulting in the plasmid pAM401-KW1, and then transformed into E. coli XL1-Blue competent cells. The insertion into pAM401 was confirmed using Kapa polymerase and primers DAP337 and DAP338, and additional confirmation via commercial sequencing. Purified plasmid was transformed into the conjugative E. coli S17 strain, which was used to conjugate to EGD-e and EGD-e ΔagrD to generate the agr-GFP reporter strains EGD-e:pAM401-KW1 and EGD-e ΔagrD:pAM401-KW1. Conjugation was verified using primers DAP337 and DAP338.
# (§2) Fluorescence reporter assay protocol. For QS (agr) reporter assays, peptide stock solutions in DMSO (1 mM) were serially diluted in DMSO, and 2 μL of solution was added to each well in a black 96-well plate (polystyrene microtiter plate, Costar). Agonism assays utilized the ΔagrD reporter strain, with 2 μL of 100 μM AIP (final concentration 1 μM) as a positive control and 2 μL of DMSO as a negative control. Antagonism assays utilized the EGD-e reporter strain, with 2 μL of DMSO as a positive control. In both assays, wells containing only BHI media served as negative controls for normalization. An overnight culture of bacteria was diluted 1:50 in fresh BHI, then 198 μL were transferred to each well (excluding the media control wells). Plates were then incubated at 37° C. for 24 hours with shaking at 200 rpm. Fluorescence of GFP (excitation at 500 nm, emission at 540 nm) and OD600 of each well was measured using BioTek Synergy 2 plate reader. Measurements were processed by subtracting background fluorescence (BHI media), correcting by OD600, and the normalizing using the 1 μM AIP or the DMSO control for the agonism and antagonism assays, respectively. Non-linear regression curves were fitted to the data sets in GraphPad Prism 7 by using variable slope (four-parameter) dose-response analysis to obtain potency, efficacy, and statistical information about the activity of tested peptides. Each peptide was tested with three technical replicates and three biological replicates. All data derived from fluorescent reporter strains are represented with data points signifying the mean and error bars signifying the standard deviation from all replicates.
# Preparation and Validation of Listeria agr Reporter Strains. […] However, adding exogenous AIP to the ΔagrD reporter results in an increase of fluorescence, indicating agr activity has been restored.
# L. monocytogenes AgrC [2] = target: T1, L. monocytogenes AgrC; experiment: Fluorescence (agr-GFP) reporter agonism assay, ΔagrD reporter strain; type: cell-based; parameters: Emax: dose or concentration left out as unconfirmed; settings: for agonism activity (in words): ΔagrD reporter
# Text: as §1, §2
# Preparation and Validation of Listeria agr Reporter Strains. In order to facilitate profiling the native AIP and its analogs for agr activity, L. monocytogenes agr GFP reporters were designed and constructed as described above (see Materials and General Methods). Briefly, a plasmid containing the agr promoter region upstream of gfp was transformed into wild-type (EGD-e) and ΔagrD L. monocytogenes strains. The wild-type reporter naturally produces its own AIP and is able to activate AgrC, which may subsequently phosphorylate AgrA for productive binding to DNA and triggering the production of GFP (FIG. 1A). The ΔagrD reporter, lacking the ability to produce its own AIP and thereby activate AgrC, is unable to trigger substantial production of GFP. However, adding exogenous AIP to the ΔagrD reporter results in an increase of fluorescence, indicating agr activity has been restored.
# [3] = system: L. monocytogenes EGD-e ΔagrD; experiment: Crystal violet biofilm assay, ΔagrD strain (agonists); type: cell-based, Listeria monocytogenes
# Description: Biofilm assay protocol. Biofilms assays were adapted from previous reports and protocols.^51-52 Overnight cultures of L. monocytogenes EGD-e and ΔagrD were grown in BHI, then diluted 1:100 in LB. For single-point assays, 2 μL of agonists or antagonists at an appropriate concentration were added to wells in a clear 96-well microtiter plates. For dose-response assays, a stock solution of the select peptide were serially diluted in DMSO, then 2 μL of each concentration were transferred to the appropriate wells. Then, 198 μL of bacteria were added to their respective wells, using ΔagrD for agonist wells and EGD-e for antagonist wells. In each plate, additional vehicle controls for baseline biofilm formation of EGD-e and ΔagrD strains (2 μL of DMSO) were included, as well as a media control (200 μL of LB). Plates were incubated at room temperature for 24 hours statically, at which point plates were inverted over a glass waste container and gently shook to remove planktonic bacteria. The wells were gently washed with 200 μL of PBS twice, inverting again over the waste container to remove liquid. Then, 200 μL of 0.1% crystal violet solution (in water) were added to each well and incubated for 30 minutes. The wells were then washed with 200 μL of PBS three more times and left to air dry for 15 minutes. Remaining crystal violet was solubilized by the addition of 100 μL of 95% ethanol in water solution, pipetting up and down to mix, incubated for 10 minutes, then absorbance was read at 595 nm. Absorbance data was processed by normalizing to the EGD-e vehicle control (100%) and the LB media control (0%). Non-linear regression curves were fitted to the data sets in GraphPad Prism 7 by using variable slope (four-parameter) dose-response analysis to obtain potency, efficacy, and statistical information about the activity of tested peptides. Each well was tested with four technical replicates and three biological replicates. All data derived from crystal violet biofilm assays are represented with data points signifying the mean and error bars signifying the standard deviation from all replicates.
# [4] = read-out: Max Activation Observed
molecule,measurement,setting,value
"CSCC[C@@H]1NC(=O)[C@H](C)NC(=O)[C@@H](NC(=O)[C@H](C)N)CSC(=O)[C@H](C(C)C)NC(=O)[C@H](Cc2ccccc2)NC1=O [AIP F3A, A-(C-A-M-F-V)] (H-ACAMFV; thioester 2-C; N-terminus assumed)",antagonism activity (in words),L. monocytogenes AgrC [1],no noticeable antagonism
same,Emax,L. monocytogenes AgrC [2]; [4],9.72%
same,agonism activity (in words),L. monocytogenes AgrC [2],abolished agonism activity
"CSCC[C@@H]1NC(=O)[C@@H](Cc2ccccc2)NC(=O)[C@@H](NC(=O)[C@H](C)N)CSC(=O)[C@H](C(C)C)NC(=O)[C@H](Cc2ccccc2)NC1=O [AIP F3dF, A-(C-dF-M-F-V)] (H-AC[dF]MFV; thioester 2-C; N-terminus assumed)",antagonism activity (in words),L. monocytogenes AgrC [1],largely inactive
same,Emax,L. monocytogenes AgrC [2]; [4],6.63%
same,agonism activity (in words),L. monocytogenes AgrC [2],largely inactive
"CSCC[C@H]1NC(=O)[C@H](Cc2ccccc2)NC(=O)[C@@H](NC(=O)[C@H](C)N)CSC(=O)[C@H](C(C)C)NC(=O)[C@H](Cc2ccccc2)NC1=O [AIP M4dM, A-(C-F-dM-F-V)] (H-ACF[dM]FV; thioester 2-C; N-terminus assumed)",biofilm formation of ΔagrD strain (FIG. 9A),[3],increase biofilm formation
same,biofilm production compared to vehicle controls,"[3]; 10 μM, ΔagrD bacteria",doubled
same,increase in potency,"L. monocytogenes AgrC [2]; agonism, relative to native AIP",three-fold
same,Emax,L. monocytogenes AgrC [2]; [4],111%
same,agonism activity (in words),L. monocytogenes AgrC [2],no effect on agonism
"CC(C)C[C@@H]1NC(=O)[C@H](C(C)C)NC(=O)[C@@H](NC(=O)[C@@H](N)CO)CSC(=O)[C@H](CC(C)C)NC(=O)[C@H](Cc2c[nH]cn2)NC1=O [L. weihenstephanensis AIP, S-(C-V-L-H-L), reference compound] (H-SCVLHL; thioester 2-C; N-terminus assumed)",Emax,L. monocytogenes AgrC [2]; read-out: Max Activation,11.2%
"CSCC[C@@H]1NC(=O)[C@H](CO)NC(=O)[C@@H](NC(=O)[C@H](C)N)CSC(=O)[C@H](C(C)C)NC(=O)[C@H](Cc2ccccc2)NC1=O [Lm AIP F3S, A-(C-S-M-F-V)] (H-ACSMFV; thioester 2-C; N-terminus assumed)",Emax,L. monocytogenes AgrC [2]; read-out: Max Activation,16.1%
"CC[C@H](C)[C@@H]1NC(=O)[C@H](Cc2ccccc2)NC(=O)[C@H](CC(=O)O)NC(=O)[C@@H](NC(=O)[C@@H](NC(=O)[C@H](CO)NC(=O)[C@@H](N)Cc2ccc(O)cc2)[C@@H](C)O)CSC(=O)[C@H](CCSC)NC1=O [Sa AIP-I, Y-S-T-(C-D-F-I-M), reference compound] (H-YSTCDFIM; thioester 4-C)",Emax,L. monocytogenes AgrC [2]; read-out: Max Activation,12.2%
"CC(C)C[C@@H]1NC(=O)[C@H](CO)NC(=O)[C@H](CO)NC(=O)[C@@H](NC(=O)[C@H](C)NC(=O)[C@H](CC(N)=O)NC(=O)[C@@H](NC(=O)CN)C(C)C)CSC(=O)[C@H](Cc2ccccc2)NC1=O [Sa AIP-II, G-V-N-A-(C-S-S-L-F), reference compound] (H-GVNACSSLF; thioester 5-C)",Emax,L. monocytogenes AgrC [2]; read-out: Max Activation,12%
"CC[C@H](C)[C@H](N)C(=O)N[C@@H](CC(N)=O)C(=O)N[C@H]1CSC(=O)[C@H](CC(C)C)NC(=O)[C@H](CC(C)C)NC(=O)[C@H](Cc2ccccc2)NC(=O)[C@H](C)NC1=O [Sa AIP-III D4A, I-N-(C-A-F-L-L), reference compound] (H-INCAFLL; thioester 3-C)",Emax,L. monocytogenes AgrC [2]; read-out: Max Activation,12.3%
"CC[C@H](C)[C@H](N)C(=O)N[C@@H](CC(N)=O)C(=O)N[C@H]1CSC(=O)[C@H](CC(C)C)NC(=O)[C@H](CC(C)C)NC(=O)[C@H](Cc2ccccc2)NC(=O)[C@H](CC(=O)O)NC1=O [Sa AIP-III, I-N-(C-D-F-L-L), reference compound] (H-INCDFLL; thioester 3-C)",Emax,L. monocytogenes AgrC [2]; read-out: Max Activation,11.3%
"CC[C@H](C)[C@@H]1NC(=O)[C@H](Cc2ccccc2)NC(=O)[C@H](Cc2ccc(O)cc2)NC(=O)[C@@H](NC(=O)[C@@H](NC(=O)[C@H](CO)NC(=O)[C@@H](N)Cc2ccc(O)cc2)[C@@H](C)O)CSC(=O)[C@H](CCSC)NC1=O [Sa AIP-IV, Y-S-T-(C-Y-F-I-M), reference compound] (H-YSTCYFIM; thioester 4-C)",agonism or antagonism activity compared to vehicle (FIG. 1B),"L. monocytogenes AgrC [2]; 10 μM, wild-type reporter or ΔagrD reporter",minimal efficacy
same,Emax,L. monocytogenes AgrC [2]; read-out: Max Activation,9.81%
"CC(C)[C@H](NC(=O)[C@H](CO)NC(=O)[C@H](C)N)C(=O)N[C@H]1CSC(=O)[C@H](Cc2ccccc2)NC(=O)[C@H](Cc2ccc(O)cc2)NC(=O)[C@H](C)NC(=O)[C@H](C)NC1=O [Se AIP-I D1AS6A, A-S-V-(C-A-A-Y-F), reference compound] (H-ASVCAAYF; thioester 4-C)",Emax,L. monocytogenes AgrC [2]; read-out: Max Activation,12.4%
"C[C@H](N)C(=O)N[C@@H](CO)C(=O)N[C@@H](C)C(=O)N[C@H]1CSC(=O)[C@H](Cc2ccccc2)NC(=O)[C@H](Cc2ccc(O)cc2)NC(=O)[C@H](C)NC(=O)[C@H](C)NC1=O [Se AIP-I D1AV3AS6A, A-S-A-(C-A-A-Y-F), reference compound] (H-ASACAAYF; thioester 4-C)",Emax,L. monocytogenes AgrC [2]; read-out: Max Activation,12.1%
"CC(C)[C@H](NC(=O)[C@H](CO)NC(=O)[C@@H](N)CC(=O)O)C(=O)N[C@H]1CSC(=O)[C@H](Cc2ccccc2)NC(=O)[C@H](Cc2ccc(O)cc2)NC(=O)[C@H](CO)NC(=O)[C@H](C)NC1=O [Se AIP-I, D-S-V-(C-A-S-Y-F), reference compound] (H-DSVCASYF; thioester 4-C)",Emax,L. monocytogenes AgrC [2]; read-out: Max Activation,8.65%
"CC(C)C[C@@H]1NC(=O)[C@H](Cc2ccc(O)cc2)NC(=O)[C@H](CC(N)=O)NC(=O)[C@H](CO)NC(=O)[C@@H](NC(=O)[C@@H]2CCCN2C(=O)[C@H](CC(N)=O)NC(=O)[C@H](Cc2ccc(O)cc2)NC(=O)[C@H](CCCCN)NC(=O)[C@H](CO)NC(=O)[C@H](C)NC(=O)[C@@H](N)CC(N)=O)CSC1=O [Se AIP-II, N-A-S-K-Y-N-P-(C-S-N-Y-L), reference compound] (H-NASKYNPCSNYL; thioester 8-C)",Emax,L. monocytogenes AgrC [2]; read-out: Max Activation,8.45%
"CC(C)C[C@@H]1NC(=O)[C@H](Cc2ccc(O)cc2)NC(=O)[C@H](CO)NC(=O)[C@H](C)NC(=O)[C@@H](NC(=O)[C@@H]2CCCN2C(=O)[C@H](CC(N)=O)NC(=O)[C@H](Cc2ccc(O)cc2)NC(=O)[C@H](CCCCN)NC(=O)[C@H](C)NC(=O)[C@H](C)NC(=O)[C@@H](N)CC(N)=O)CSC1=O [Se AIP-III, N-A-A-K-Y-N-P-(C-A-S-Y-L), reference compound] (H-NAAKYNPCASYL; thioester 8-C)",Emax,L. monocytogenes AgrC [2]; read-out: Max Activation,8.73%
A-(C-F-M-A-V) [AIP F5A],antagonism activity (in words),L. monocytogenes AgrC [1],no noticeable antagonism
same,Max Activation Observed,"L. monocytogenes AgrC [2]; Table 6, normalized with 1 μM AIP (100%) and media (0%) in ΔagrD reporter",6.37%
same,agonism activity (in words),L. monocytogenes AgrC [2],abolished agonism activity
